ChEMBL document CHEMBL3112450, “Synthesis and in vitro antitumor evaluation of primary amine substituted quinazoline linked benzimidazole” (Bioorg Med Chem Lett, 2014)
pIC50: −log10 of the molar value.

Key:
CCRF-CEM = assay: Cytotoxicity against human CCRF-CEM cells assessed as growth inhibition at 10 uM after 48 hrs by SRB assay; format: functional; conditions: read-out: GI
SN12C = assay: Cytotoxicity against human SN12C cells assessed as growth inhibition at 10 uM after 48 hrs by SRB assay; format: functional; conditions: read-out: GI
SW-620 = assay: Cytotoxicity against human SW620 cells assessed as growth inhibition at 10 uM after 48 hrs by SRB assay; format: functional; conditions: SW-620, 48 h, read-out: GI
[1] = Cytotoxicity against human UACC257 cells assessed as cell growth at 10^-7 M after 48 hrs by SRB assay; format: functional; conditions: UACC-257, 48 h, read-out: Activity
[2] = Cytotoxicity against human NCI-ADR-RES cells assessed as growth inhibition at 10 uM after 48 hrs by SRB assay; format: functional; conditions: read-out: GI
PC-3 = assay: Cytotoxicity against human PC3 cells assessed as growth inhibition at 10 uM after 48 hrs by SRB assay; format: functional; conditions: PC-3, 48 h, read-out: GI
[3] = Cytotoxicity against human UACC257 cells after 48 hrs by SRB assay; format: functional; conditions: UACC-257, 48 h
HCT-116 = assay: Cytotoxicity against human HCT116 cells assessed as growth inhibition at 10 uM after 48 hrs by SRB assay; format: functional; conditions: HCT-116, 48 h, read-out: GI
HCT-15 = assay: Cytotoxicity against human HCT15 cells assessed as growth inhibition at 10 uM after 48 hrs by SRB assay; format: functional; conditions: HCT-15, 48 h, read-out: GI
SNB-75 [4] = assay: Cytotoxicity against human SNB75 cells assessed as cell growth at 10^-4 M after 48 hrs by SRB assay; format: functional; conditions: SNB-75, 48 h, read-out: Activity
SF-295 = assay: Cytotoxicity against human SF295 cells assessed as growth inhibition at 10 uM after 48 hrs by SRB assay; format: functional; conditions: SF-295, 48 h, read-out: GI
[5] = Cytotoxicity against human UACC257 cells assessed as cell growth at 10^-4 M after 48 hrs by SRB assay; format: functional; conditions: UACC-257, 48 h, read-out: Activity
[6] = Cytotoxicity against human UO31 cells assessed as growth inhibition at 10 uM after 48 hrs by SRB assay; format: functional; conditions: UO-31, 48 h, read-out: GI
SNB-75 [7] = assay: Cytotoxicity against human SNB75 cells assessed as cell growth at 10^-8 M after 48 hrs by SRB assay; format: functional; conditions: SNB-75, 48 h, read-out: Activity
[8] = Cytotoxicity against human OVCAR4 cells assessed as growth inhibition at 10 uM after 48 hrs by SRB assay; format: functional; conditions: OVCAR-4, 48 h, read-out: GI
SR = assay: Cytotoxicity against human SR cells assessed as growth inhibition at 10 uM after 48 hrs by SRB assay; format: functional; conditions: read-out: GI
SNB-75 [9] = assay: Cytotoxicity against human SNB75 cells assessed as growth inhibition at 10 uM after 48 hrs by SRB assay; format: functional; conditions: SNB-75, 48 h, read-out: GI
A549 [10] = assay: Cytotoxicity against human A549 cells assessed as cell growth at 10^-7 M after 48 hrs by SRB assay; format: functional; conditions: A549, 48 h, read-out: Activity
OVCAR-3 = assay: Cytotoxicity against human OVCAR3 cells assessed as cell growth at 10^-4 M after 48 hrs by SRB assay; format: functional; conditions: OVCAR-3, 48 h, read-out: Activity
IGROV-1 = assay: Cytotoxicity against human IGROV1 cells assessed as growth inhibition at 10 uM after 48 hrs by SRB assay; format: functional; conditions: IGROV-1, 48 h, read-out: GI
SNB-75 [11] = assay: Cytotoxicity against human SNB75 cells assessed as cell growth at 10^-7 M after 48 hrs by SRB assay; format: functional; conditions: SNB-75, 48 h, read-out: Activity
NCI-H23 = assay: Cytotoxicity against human NCI-H23 cells assessed as growth inhibition at 10 uM after 48 hrs by SRB assay; format: functional; conditions: NCI-H23, 48 h, read-out: GI
SNB-75 [12] = assay: Cytotoxicity against human SNB75 cells assessed as cell growth at 10^-6 M after 48 hrs by SRB assay; format: functional; conditions: SNB-75, 48 h, read-out: Activity
MDA-MB-231 = assay: Cytotoxicity against human MDA-MB-231 cells assessed as growth inhibition at 10 uM after 48 hrs by SRB assay; format: functional; conditions: MDA-MB-231, 48 h, read-out: GI
NCI-H460 = assay: Cytotoxicity against human NCI-H460 cells assessed as growth inhibition at 10 uM after 48 hrs by SRB assay; format: functional; conditions: NCI-H460, 48 h, read-out: GI
[13] = Cytotoxicity against human UACC257 cells assessed as cell growth at 10^-8 M after 48 hrs by SRB assay; format: functional; conditions: UACC-257, 48 h, read-out: Activity
A549 [14] = assay: Cytotoxicity against human A549 cells assessed as cell growth at 10^-4 M after 48 hrs by SRB assay; format: functional; conditions: A549, 48 h, read-out: Activity
A549 [15] = assay: Cytotoxicity against human A549 cells after 48 hrs by SRB assay; format: functional; conditions: A549, 48 h
A549 [16] = assay: Cytotoxicity against human A549 cells assessed as cell growth at 10^-8 M after 48 hrs by SRB assay; format: functional; conditions: A549, 48 h, read-out: Activity
MCF7 = assay: Cytotoxicity against human MCF7 cells assessed as growth inhibition at 10 uM after 48 hrs by SRB assay; format: functional; conditions: MCF7, 48 h, read-out: GI
SK-MEL-5 = assay: Cytotoxicity against human SK-MEL-5 cells assessed as growth inhibition at 10 uM after 48 hrs by SRB assay; format: functional; conditions: SK-MEL-5, 48 h, read-out: GI
MDA-MB-468 = assay: Cytotoxicity against human MDA-MB-468 cells assessed as growth inhibition at 10 uM after 48 hrs by SRB assay; format: functional; conditions: MDA-MB-468, 48 h, read-out: GI
DU-145 = assay: Cytotoxicity against human DU145 cells assessed as growth inhibition at 10 uM after 48 hrs by SRB assay; format: functional; conditions: DU-145, 48 h, read-out: GI
COLO 205 = assay: Cytotoxicity against human COLO205 cells assessed as growth inhibition at 10 uM after 48 hrs by SRB assay; format: functional; conditions: COLO 205, 48 h, read-out: GI
KM12 = assay: Cytotoxicity against human KM12 cells assessed as growth inhibition at 10 uM after 48 hrs by SRB assay; format: functional; conditions: KM12, 48 h, read-out: GI
K562 = assay: Cytotoxicity against human K562 cells assessed as growth inhibition at 10 uM after 48 hrs by SRB assay; format: functional; conditions: K562, 48 h, read-out: GI
SNB-75 [17] = assay: Cytotoxicity against human SNB75 cells after 48 hrs by SRB assay; format: functional, cell-based; conditions: SNB-75, 48 h
[18] = Cytotoxicity against human UACC257 cells assessed as cell growth at 10^-6 M after 48 hrs by SRB assay; format: functional; conditions: UACC-257, 48 h, read-out: Activity
[19] = Cytotoxicity against human OVCAR5 cells assessed as growth inhibition at 10 uM after 48 hrs by SRB assay; format: functional; conditions: OVCAR-5, 48 h, read-out: GI
NCI-H226 = assay: Cytotoxicity against human NCI-H226 cells assessed as growth inhibition at 10 uM after 48 hrs by SRB assay; format: functional; conditions: NCI-H226, 48 h, read-out: GI

Structure (SMILES): C=CCn1c(C)nc2ccc(Nc3nc(Sc4ccc(N)cc4)nc4ccccc34)cc21
- inhibition of growth at 10 µM (CCRF-CEM): 30%

Structure (SMILES): C=CCn1c(C)nc2ccc(Nc3nc(Nc4ccc(F)cc4)nc4ccccc34)cc21
- inhibition of growth at 10 µM (SN12C): 30%
- inhibition of growth at 10 µM (SW-620): 50%
- growth at 0.1 µM [1]: 98%
- inhibition of growth at 10 µM [2]: 50%
- inhibition of growth at 10 µM (PC-3): 50%
- GI50 [3]: 13.1 µM
- LC50 (concentration killing 50% of cells) [3]: 68.3 µM
- TGI [3]: 29.9 µM
- inhibition of growth at 10 µM (HCT-116): 70%
- inhibition of growth at 10 µM (HCT-15): 50%
- growth at 100 µM (SNB-75 [4]): -57%
- inhibition of growth at 10 µM (SF-295): 50%
- growth at 100 µM [5]: -73%
- inhibition of growth at 10 µM [6]: 50%
- growth at 0.01 µM (SNB-75 [7]): 76%
- inhibition of growth at 10 µM [8]: 50%
- inhibition of growth at 10 µM (SR): 70%
- inhibition of growth at 10 µM (SNB-75 [9]): 40%
- growth at 0.1 µM (A549 [10]): 97%
- growth at 100 µM (OVCAR-3): -90%
- inhibition of growth at 10 µM (IGROV-1): 40%
- growth at 0.1 µM (SNB-75 [11]): 80%
- inhibition of growth at 10 µM (NCI-H23): 40%
- growth at 1 µM (SNB-75 [12]): 76%
- inhibition of growth at 10 µM (MDA-MB-231): 30%
- inhibition of growth at 10 µM (NCI-H460): 30%
- growth at 0.01 µM [13]: 98%
- growth at 100 µM (A549 [14]): -49%
- GI50 (A549 [15]): 4.18 µM
- LC50 (A549 [15]): > 100 µM
- TGI (A549 [15]): 22.2 µM
- growth at 0.01 µM (A549 [16]): 94%
- inhibition of growth at 10 µM (MCF7): 70%
- inhibition of growth at 10 µM (SK-MEL-5): 50%
- inhibition of growth at 10 µM (MDA-MB-468): 50%
- inhibition of growth at 10 µM (DU-145): 30%
- inhibition of growth at 10 µM (COLO 205): 50%
- inhibition of growth at 10 µM (KM12): 50%
- inhibition of growth at 10 µM (K562): 70%
- GI50 (SNB-75 [17]): 1.51 µM
- pIC50 (SNB-75 [17]): 5.12
- TGI (SNB-75 [17]): 3.37 µM
- growth at 1 µM [18]: 92%
- inhibition of growth at 10 µM (CCRF-CEM): 70%

Structure (SMILES): C=CCn1c(C)nc2ccc(Nc3nc(Nc4ccc5nc(C)n(CC=C)c5c4)c4ccccc4n3)cc21
- growth at 0.1 µM [1]: 92%
- inhibition of growth at 10 µM [2]: 40%
- GI50 [3]: 1.57 µM
- TGI [3]: 3.03 µM
- growth at 100 µM [5]: -49%
- growth at 0.1 µM (A549 [10]): 101%
- growth at 100 µM (OVCAR-3): -48%
- inhibition of growth at 10 µM [19]: 70%
- inhibition of growth at 10 µM (NCI-H226): 30%
- inhibition of growth at 10 µM (NCI-H23): 50%
- growth at 0.01 µM [13]: 90%
- growth at 100 µM (A549 [14]): -14%
- GI50 (A549 [15]): 1.72 µM
- TGI (A549 [15]): 3.22 µM
- growth at 0.01 µM (A549 [16]): 99%
- growth at 1 µM [18]: 84%

Structure (SMILES): C=CCn1c(C)nc2cc(Nc3nc(Nc4ccc5nc(C)n(CC=C)c5c4)c4ccccc4n3)ccc21
- growth at 100 µM (SNB-75 [4]): -61%
- growth at 0.01 µM (SNB-75 [7]): 84%
- growth at 0.1 µM (SNB-75 [11]): 93%
- growth at 1 µM (SNB-75 [12]): 18%
- GI50 (SNB-75 [17]): 0.375 µM
- LC50 (concentration killing 50% of cells) (SNB-75 [17]): 5.31 µM
- TGI (SNB-75 [17]): 1.56 µM

Structure (SMILES): C=CCn1c(C)nc2cc(Nc3nc(NCCO)nc4ccccc34)ccc21
- inhibition of growth at 10 µM (SW-620): 30%
- inhibition of growth at 10 µM (PC-3): 30%
- inhibition of growth at 10 µM (HCT-116): 30%
- inhibition of growth at 10 µM [6]: 30%
- inhibition of growth at 10 µM [8]: 30%
- inhibition of growth at 10 µM (SR): 30%
- inhibition of growth at 10 µM (MDA-MB-231): 30%
- inhibition of growth at 10 µM (MCF7): 30%
- inhibition of growth at 10 µM (SK-MEL-5): 30%
- inhibition of growth at 10 µM (MDA-MB-468): 40%
- inhibition of growth at 10 µM (COLO 205): 50%
- inhibition of growth at 10 µM (KM12): 30%
- inhibition of growth at 10 µM (K562): 30%
